Measurements as given in patent publication US10457710B2, “Antimicrobial peptides, their variants and uses” (priority 2015, dated 2019).

Tests used:
Experiment in all cases: MIC, microdilution, clinical strains
Type in all cases: cell-based
[1] = test system: clinical strains of E. cloacae; details: 0.02% BSA, 0.2% acetic acid
Summary of the method: (§1)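 MIC = lowest peptide concentration without visual growth after 20–24 h at 37° C. Range 0.125–128 μg/ml, inoculum 5.0×10^5 cfu/ml, microdilution format. Antifungal tests used potato dextrose broth; bacterial tests used MH broth.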

[2] = test system: clinical strains of E. coli; details: microdilution, Muller Hinton broth-cation adjusted, 0.02% BSA, 0.2% acetic acid
Summary of the method: as §1

[3] = test system: clinical strains of K. pneumoniae; details: 0.02% BSA, 0.2% acetic acid
Summary of the method: as §1

[4] = test system: clinical strains of P. aeruginosa; details: 0.02% BSA, 0.2% acetic acid
Summary of the method: as §1

[5] = test system: clinical strains of Proteus mirabilis; details: 0.02% BSA, 0.2% acetic acid
Summary of the method: as §1

[6] = test system: clinical strains of S. aureus; details: 0.02% BSA, 0.2% acetic acid
Summary of the method: as §1

[7] = test system: clinical strains of S. pneumoniae; details: 0.02% BSA, 0.2% acetic acid
Summary of the method: as §1

[8] = test system: clinical strains of Serratia marcescens; details: 0.02% BSA, 0.2% acetic acid
Summary of the method: as §1

[9] = test system: clinical strains of A. johnsonii; design: unit: μg/ml; details: Acinetobacter johnsonii strain 1, Muller Hinton broth-cation adjusted, 0.02% BSA, 0.2% acetic acid
Method: (§2) Minimum inhibition concetrations (MICs) were determined against Escherichia coli (ATCC 25922), Staphylococcus aureus (ATCC 25923), Klebsiella pneumoniae (ATCC 10031) and Pseudomonas aeruginosa (ATCC 27853). Also clinical strains of E. coli, K. pneumoniae, E. cloacae, P. aeruginosa, Serratia marcescens, Proteus mirabilis, S. pneumoniae, Acinetobacter baumannii, A. johnsonii and S. aureus were used for MICs assays. Additionally, clinical strains of yeast including Candida albicans, C. glabrata, C. parapsilosis and C. quillermondiae were used. The susceptibility of these microorganisms to Chain peptides were determined using micro broth dilution assay. Colonies of the respective microorganism from Muller Hinton (MH) agar plates incubated overnight were suspended in MH broth media and final concentration of microorganism was adjusted to 5.0×10^5 cfu/ml. An aliquot of 10 μl of each Chain peptide, or gentamicin, tetracycline as reference antibiotics were added in differing concentrations along with 90 μl of bacterial suspension to 96 well polypropylene plates and incubated at 37° C. for 20 to 24 hours. Concentrations of Chain peptides and reference antibiotics ranged from 0.125 to 128 μg/ml and the MICs were recorded as the lowest concentration with no visual growth of bacteria. Similarly, antifungal MICs were tested in Potato dextrose broth.
(§3) Clinical strains of yeasts including Candida albicans, C. glabrata, C. parapsilosis and C. quillermondiae were also tested with the 12 Chain peptides. The minimum inhibitory concentration (MICs) varied between these peptides and are presented in Tables 4a, 4b, 4c and 5a, 5b, 5c. Peptides Chain 105, 201 and 308 are broad spectrum antimicrobials with MICs between 0.5-32 μg/ml against all the bacteria and yeasts tested, except Serratia marcescens and Proteus mirabilis, against which the MICs were between 64-128 μg/ml. Peptide Chain 306 has narrow spectrum activity against E. coli at 1 μg/ml and for the rest of the bacterial strains at >32 μg/ml (FIG. 10c).

[10] = test system: clinical strains of Acinetobacter baumannii; design: unit: μg/ml; details: 0.02% BSA, 0.2% acetic acid
Method: as §2, §3

For Gentamicin [reference compound], the Minimum inhibitory concentration ([1]; Enterobacter cloacae strain 1, Muller Hinton broth-cation adjusted) was 0.25, the Minimum inhibitory concentration ([1]; Enterobacter cloacae strain 2, Muller Hinton broth-cation adjusted) was 0.25 and the Minimum inhibitory concentration ([1]; Enterobacter cloacae strain 3, Muller Hinton broth-cation adjusted) was 0.25. For the same substance, the Minimum inhibitory concentration ([1]; Enterobacter cloacae strain 4, Muller Hinton broth-cation adjusted) was 0.25, the Minimum inhibitory concentration ([1]; Enterobacter cloacae strain 5, Muller Hinton broth-cation adjusted) was 0.25 and the Minimum inhibitory concentration ([2]; Escherichia coli strain 1) was 0.5. The Minimum inhibitory concentration ([2]; Escherichia coli strain 2) was 0.5, the Minimum inhibitory concentration ([2]; Escherichia coli strain 3) was 1 and the Minimum inhibitory concentration ([2]; Escherichia coli strain 4) was 1. It also gave a Minimum inhibitory concentration ([2]; Escherichia coli strain 5) of 1, a Minimum inhibitory concentration ([3]; Klebsiella pneumoniae strain 1, Muller Hinton broth-cation adjusted) of 2 and a Minimum inhibitory concentration ([3]; Klebsiella pneumoniae strain 2, Muller Hinton broth-cation adjusted) of 0.25. For the same substance, the Minimum inhibitory concentration ([3]; Klebsiella pneumoniae strain 3, Muller Hinton broth-cation adjusted) was 2, the Minimum inhibitory concentration ([3]; Klebsiella pneumoniae strain 4, Muller Hinton broth-cation adjusted) was 2 and the Minimum inhibitory concentration ([3]; Klebsiella pneumoniae strain 5, Muller Hinton broth-cation adjusted) was 4. For the same substance, the Minimum inhibitory concentration ([4]; Pseudomonas aeruginosa strain 1, Muller Hinton broth-cation adjusted) was 1, the Minimum inhibitory concentration ([4]; Pseudomonas aeruginosa strain 2, Muller Hinton broth-cation adjusted) was 0.5 and the Minimum inhibitory concentration ([4]; Pseudomonas aeruginosa strain 3, Muller Hinton broth-cation adjusted) was 0.5. For the same substance, the Minimum inhibitory concentration ([4]; Pseudomonas aeruginosa strain 4, Muller Hinton broth-cation adjusted) was 0.5, the Minimum inhibitory concentration ([4]; Pseudomonas aeruginosa strain 5, Muller Hinton broth-cation adjusted) was 0.25 and the Minimum inhibitory concentration ([5]; Proteus mirabilis strain 1, Muller Hinton broth-cation adjusted) was 2. For the same substance, the Minimum inhibitory concentration ([5]; Proteus mirabilis strain 2, Muller Hinton broth-cation adjusted) was 2, the Minimum inhibitory concentration ([5]; Proteus mirabilis strain 3, Muller Hinton broth-cation adjusted) was >128 and the Minimum inhibitory concentration ([5]; Proteus mirabilis strain 4, Muller Hinton broth-cation adjusted) was 8. The Minimum inhibitory concentration ([5]; Proteus mirabilis strain 5, Muller Hinton broth-cation adjusted) was >128, the Minimum inhibitory concentration ([6]; Staphylococcus aureus strain 1, Muller Hinton broth-cation adjusted) was 0.5 and the Minimum inhibitory concentration ([6]; Staphylococcus aureus strain 2, Muller Hinton broth-cation adjusted) was 0.5. The Minimum inhibitory concentration ([6]; Staphylococcus aureus strain 3, Muller Hinton broth-cation adjusted) was 0.5, the Minimum inhibitory concentration ([6]; Staphylococcus aureus strain 4, Muller Hinton broth-cation adjusted) was 0.5 and the Minimum inhibitory concentration ([6]; Staphylococcus aureus strain 5, Muller Hinton broth-cation adjusted) was 0.5. The Minimum inhibitory concentration ([7]; Streptococcus pneumoniae strain 1, Muller Hinton broth-cation adjusted) was 2, the Minimum inhibitory concentration ([7]; Streptococcus pneumoniae strain 2, Muller Hinton broth-cation adjusted) was 2 and the Minimum inhibitory concentration ([7]; Streptococcus pneumoniae strain 3, Muller Hinton broth-cation adjusted) was 2. For the same substance, the Minimum inhibitory concentration ([7]; Streptococcus pneumoniae strain 4, Muller Hinton broth-cation adjusted) was 2, the Minimum inhibitory concentration ([7]; Streptococcus pneumoniae strain 5, Muller Hinton broth-cation adjusted) was 1 and the Minimum inhibitory concentration ([8]; Serratia marcescens strain 1, Muller Hinton broth-cation adjusted) was 1. The Minimum inhibitory concentration ([8]; Serratia marcescens strain 2, Muller Hinton broth-cation adjusted) was 2, the Minimum inhibitory concentration ([8]; Serratia marcescens strain 3, Muller Hinton broth-cation adjusted) was 1 and the Minimum inhibitory concentration ([8]; Serratia marcescens strain 4, Muller Hinton broth-cation adjusted) was 1. It also gave a Minimum inhibitory concentration ([8]; Serratia marcescens strain 5, Muller Hinton broth-cation adjusted) of 1, a Minimum inhibitory concentration [9] of 0.25 and a Minimum inhibitory concentration ([10]; Acinetobacter baumannii strain 1, Muller Hinton broth-cation adjusted) of 0.5. The Minimum inhibitory concentration ([10]; Acinetobacter baumannii strain 2, Muller Hinton broth-cation adjusted) was 0.25, the Minimum inhibitory concentration ([10]; Acinetobacter baumannii strain 3, Muller Hinton broth-cation adjusted) was 0.5 and the Minimum inhibitory concentration ([10]; Acinetobacter baumannii strain 4, Muller Hinton broth-cation adjusted) was 0.5. The Minimum inhibitory concentration ([10]; Acinetobacter baumannii strain 5, Muller Hinton broth-cation adjusted) was 0.25.
